Data: ChEMBL document CHEMBL4619713, “Novel PDE5 inhibitors derived from rutaecarpine for the treatment of Alzheimer's disease” (Bioorg Med Chem Lett, 2020)
Active and inactive are the calls of the source. No cut-off for these calls is given here.

Tests used:
[1] = target: cGMP-specific 3',5'-cyclic phosphodiesterase (Homo sapiens, UniProt O76074); assay: Inhibition of PDE5A (unknown origin)
Homo sapiens [2] = organism: Homo sapiens; assay: Selectivity index, ratio of IC50 for PDE6 (unknown origin) to IC50 for PDE5A (unknown origin)
Phosphodiesterase 4 = Phosphodiesterase 4 (Homo sapiens, UniProt P27815+Q08499+Q07343+Q08493); assay: Inhibition of PDE4 (unknown origin); format: protein assay
Mus musculus [3] = assay: Cognitive enhancing effect in mouse mouse model of scopolamine-induced cognition deficit assessed as decrease in frequent error at 5 and 10 mg/kg by water maze test; format: functional, organism-based
Homo sapiens [4] = organism: Homo sapiens; assay: Selectivity index, ratio of IC50 for PDE4 (unknown origin) to IC50 for PDE5A (unknown origin)
Mus musculus [5] = assay: Cognitive enhancing effect in mouse mouse model of scopolamine-induced cognition deficit assessed as reduction in escape latency at 5 and 10 mg/kg by water maze test; format: functional, organism-based
Phosphodiesterase 6 = assay: Inhibition of PDE6 (unknown origin); format: protein assay, Homo sapiens
[6] = target: cGMP-dependent 3',5'-cyclic phosphodiesterase (Homo sapiens, UniProt O00408); assay: Inhibition of PDE2 (unknown origin)
[7] = target: High affinity cGMP-specific 3',5'-cyclic phosphodiesterase 9A (Homo sapiens, UniProt O76083); assay: Inhibition of PDE9 (unknown origin)
Homo sapiens [8] = organism: Homo sapiens; assay: Selectivity index, ratio of IC50 for PDE2 (unknown origin) to IC50 for PDE5A (unknown origin)
Homo sapiens [9] = organism: Homo sapiens; assay: Selectivity index, ratio of IC50 for PDE9 (unknown origin) to IC50 for PDE5A (unknown origin)
[10] = target: cAMP and cAMP-inhibited cGMP 3',5'-cyclic phosphodiesterase 10A (Homo sapiens, UniProt Q9Y233); assay: Inhibition of PDE10 (unknown origin)
cAMP and cAMP-inhibited cGMP 3',5'-cyclic phosphodiesterase 10A, sequence (Q9Y233 whole entry): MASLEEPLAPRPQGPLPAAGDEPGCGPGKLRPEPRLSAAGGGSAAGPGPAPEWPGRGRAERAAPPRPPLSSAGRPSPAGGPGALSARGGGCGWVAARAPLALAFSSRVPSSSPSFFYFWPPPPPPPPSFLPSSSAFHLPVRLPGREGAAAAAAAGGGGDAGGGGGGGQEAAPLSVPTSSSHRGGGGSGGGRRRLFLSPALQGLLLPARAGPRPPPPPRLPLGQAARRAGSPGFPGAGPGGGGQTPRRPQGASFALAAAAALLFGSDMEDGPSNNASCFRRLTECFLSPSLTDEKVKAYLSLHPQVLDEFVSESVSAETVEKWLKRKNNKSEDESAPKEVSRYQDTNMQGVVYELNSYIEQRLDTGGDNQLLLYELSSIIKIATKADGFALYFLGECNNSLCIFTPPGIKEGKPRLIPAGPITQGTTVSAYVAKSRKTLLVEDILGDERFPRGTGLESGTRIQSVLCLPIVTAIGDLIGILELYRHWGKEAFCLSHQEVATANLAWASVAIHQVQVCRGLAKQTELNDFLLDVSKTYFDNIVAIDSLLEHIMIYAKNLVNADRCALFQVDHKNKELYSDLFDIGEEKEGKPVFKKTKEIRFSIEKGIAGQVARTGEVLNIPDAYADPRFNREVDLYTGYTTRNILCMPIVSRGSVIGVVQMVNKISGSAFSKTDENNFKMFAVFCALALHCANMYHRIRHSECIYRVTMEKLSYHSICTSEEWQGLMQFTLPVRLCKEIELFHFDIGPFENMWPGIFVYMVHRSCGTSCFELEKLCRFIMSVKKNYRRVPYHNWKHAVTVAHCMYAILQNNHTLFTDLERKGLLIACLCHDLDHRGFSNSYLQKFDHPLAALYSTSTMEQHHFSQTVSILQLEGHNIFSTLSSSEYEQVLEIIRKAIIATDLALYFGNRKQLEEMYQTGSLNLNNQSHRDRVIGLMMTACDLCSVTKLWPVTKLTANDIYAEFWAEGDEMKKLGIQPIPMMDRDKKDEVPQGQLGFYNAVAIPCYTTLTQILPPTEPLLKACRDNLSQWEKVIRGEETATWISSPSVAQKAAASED

cGMP-dependent 3',5'-cyclic phosphodiesterase, sequence (O00408 whole entry): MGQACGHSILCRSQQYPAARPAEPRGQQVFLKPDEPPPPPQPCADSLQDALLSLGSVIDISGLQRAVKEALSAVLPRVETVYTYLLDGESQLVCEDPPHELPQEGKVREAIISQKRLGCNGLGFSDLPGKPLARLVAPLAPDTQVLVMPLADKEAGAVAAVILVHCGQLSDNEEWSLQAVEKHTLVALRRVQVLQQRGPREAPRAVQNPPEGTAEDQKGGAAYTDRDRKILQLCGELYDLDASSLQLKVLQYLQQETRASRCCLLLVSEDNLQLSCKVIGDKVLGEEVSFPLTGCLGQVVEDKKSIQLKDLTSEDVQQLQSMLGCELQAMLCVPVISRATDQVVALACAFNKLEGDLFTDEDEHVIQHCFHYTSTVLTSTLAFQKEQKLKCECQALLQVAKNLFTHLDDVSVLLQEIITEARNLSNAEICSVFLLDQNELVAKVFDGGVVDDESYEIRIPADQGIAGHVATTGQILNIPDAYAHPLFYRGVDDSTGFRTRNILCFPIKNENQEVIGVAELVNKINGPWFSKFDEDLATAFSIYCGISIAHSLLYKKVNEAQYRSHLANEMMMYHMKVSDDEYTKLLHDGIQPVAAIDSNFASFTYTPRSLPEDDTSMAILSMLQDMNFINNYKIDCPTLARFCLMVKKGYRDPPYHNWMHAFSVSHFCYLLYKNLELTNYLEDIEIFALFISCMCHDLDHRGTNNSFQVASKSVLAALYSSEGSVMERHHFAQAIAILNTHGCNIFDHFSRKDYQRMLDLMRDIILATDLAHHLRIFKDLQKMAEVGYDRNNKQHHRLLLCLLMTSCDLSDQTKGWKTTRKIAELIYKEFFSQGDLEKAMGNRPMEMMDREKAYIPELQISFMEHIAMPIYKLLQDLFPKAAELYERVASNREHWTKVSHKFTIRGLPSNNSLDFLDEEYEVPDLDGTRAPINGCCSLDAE
High affinity cGMP-specific 3',5'-cyclic phosphodiesterase 9A, sequence (O76083 whole entry): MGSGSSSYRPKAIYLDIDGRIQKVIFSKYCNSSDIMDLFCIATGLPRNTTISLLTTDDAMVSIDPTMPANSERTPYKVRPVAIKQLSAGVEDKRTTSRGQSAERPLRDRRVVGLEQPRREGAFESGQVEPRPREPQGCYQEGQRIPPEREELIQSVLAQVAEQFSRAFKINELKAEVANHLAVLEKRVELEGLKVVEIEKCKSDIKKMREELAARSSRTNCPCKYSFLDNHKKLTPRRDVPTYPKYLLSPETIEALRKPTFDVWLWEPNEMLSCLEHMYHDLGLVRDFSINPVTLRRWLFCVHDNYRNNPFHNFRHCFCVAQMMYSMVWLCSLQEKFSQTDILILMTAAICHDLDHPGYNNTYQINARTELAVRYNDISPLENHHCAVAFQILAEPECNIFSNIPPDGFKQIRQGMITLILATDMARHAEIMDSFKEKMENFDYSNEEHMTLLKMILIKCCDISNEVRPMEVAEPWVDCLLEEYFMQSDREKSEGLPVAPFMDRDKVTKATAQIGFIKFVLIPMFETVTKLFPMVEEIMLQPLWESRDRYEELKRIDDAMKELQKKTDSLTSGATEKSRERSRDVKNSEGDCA

SMILES	IC50 [1] [nM]	other results
CCCn1c2c(c3ccccc31)CCn1c-2nc2ccccc2c1=O	1700	–
CCCCn1c2c(c3ccccc31)CCn1c-2nc2ccccc2c1=O	1120	–
COc1ccc2c3c([nH]c2c1)-c1nc2ccccc2c(=O)n1CC3	22100	–
CCCc1nn(C)c2c(=O)[nH]c(-c3cc(S(=O)(=O)N4CCN(C)CC4)ccc3OCC)nc12	–	Ratio IC50 (Homo sapiens [2]): 10
CCCn1c2c(c3ccc(OC)cc31)CCn1c-2nc2ccccc2c1=O	12100	–
COc1cc(OC)c2c3c(n(CCC(C)C)c2c1)-c1nc2ccccc2c(=O)n1CC3	18200	–
CC(C)CCn1c2c(c3c(O)cc(O)cc31)CCn1c-2nc2ccccc2c1=O	86	IC50 (Phosphodiesterase 4): > 500000 nM; Activity (Mus musculus [3]): Active; Ratio IC50 (Homo sapiens [4]): > 5000; Activity (Mus musculus [5]): Active; IC50 (Phosphodiesterase 6): 43800 nM; Ratio IC50 (Homo sapiens [2]): > 500; IC50 [6]: > 500000 nM; IC50 [7]: > 500000 nM; Ratio IC50 (Homo sapiens [8]): > 5000; Ratio IC50 (Homo sapiens [9]): > 5000; IC50 [10]: 32100 nM
CCn1c2c(c3ccc(O)cc31)CCn1c-2nc2ccccc2c1=O	970	–
CCn1c2c(c3c(O)cc(O)cc31)CCn1c-2nc2ccccc2c1=O	970	–
COc1cc(OC)c2c3c([nH]c2c1)-c1nc2ccccc2c(=O)n1CC3	45600	–
CCCCn1c2c(c3ccc(O)cc31)CCn1c-2nc2ccccc2c1=O	630	–

Further lines, with some results ahead:

IC50 [1] [nM]	SMILES	other results
19800	CCCn1c2c(c3c(OC)cc(OC)cc31)CCn1c-2nc2ccccc2c1=O	–
20600	CCCCn1c2c(c3c(OC)cc(OC)cc31)CCn1c-2nc2ccccc2c1=O	–
260	CCCCn1c2c(c3c(O)cc(O)cc31)CCn1c-2nc2ccccc2c1=O	–
1120	CCn1c2c(c3ccccc31)CCn1c-2nc2ccccc2c1=O	–
9190	CCCCn1c2c(c3ccc(OC)cc31)CCn1c-2nc2ccccc2c1=O	–
47300	CCn1c2c(c3c(OC)cc(OC)cc31)CCn1c-2nc2ccccc2c1=O	–
330	CCCn1c2c(c3c(O)cc(O)cc31)CCn1c-2nc2ccccc2c1=O	–
790	O=c1c2ccccc2nc2n1CCc1c-2[nH]c2cc(O)cc(O)c12	–
1330	CCCn1c2c(c3ccc(O)cc31)CCn1c-2nc2ccccc2c1=O	–
> 100000	COc1cc2c(cc1OC)C(=O)C(CC1CCN(Cc3ccccc3)CC1)C2 (stereo not drawn) [DONEPEZIL]	–
610	CC(C)CCn1c2c(c3ccccc31)CCn1c-2nc2ccccc2c1=O	–
110	CC(C)CCn1c2c(c3ccc(O)cc31)CCn1c-2nc2ccccc2c1=O	–
11600	CCn1c2c(c3ccc(OC)cc31)CCn1c-2nc2ccccc2c1=O	–
1360	O=c1c2ccccc2nc2n1CCc1c-2[nH]c2cc(O)ccc12	–
6170	COc1ccc2c3c(n(CCC(C)C)c2c1)-c1nc2ccccc2c(=O)n1CC3	–
1230	O=c1c2ccccc2nc2n1CCc1c-2[nH]c2ccccc12 [RUTAECARPINE]	–
